PubChem BioAssay (NCI)
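Protocol summary: plate cells (96-well), add compound at 5 concentrations, incubate 48 h, interpolate endpoints linearly. At the TGI there is no net growth.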

Columns and labels:
Test in all cases: growth of human tumour cells (NCI), 48 h
UACC-62 melanoma = test system: UACC-62 melanoma
LXFL 529 NSCLC = test system: LXFL 529 NSCLC
EKVX NSCLC = test system: EKVX NSCLC
TK-10 renal = test system: TK-10 renal
SNB-75 CNS = test system: SNB-75 CNS
HCT-15 colon = test system: HCT-15 colon
SW-620 colon = test system: SW-620 colon
M14 melanoma = test system: M14 melanoma
CCRF-CEM leukemia = test system: CCRF-CEM leukemia
DMS 273 small cell lung = test system: DMS 273 small cell lung
OVCAR-4 ovarian = test system: OVCAR-4 ovarian
HCC-2998 colon = test system: HCC-2998 colon
XF 498 CNS = test system: XF 498 CNS
RPMI-8226 leukemia = test system: RPMI-8226 leukemia
IGROV1 ovarian = test system: IGROV1 ovarian
RXF-631 renal = test system: RXF-631 renal
HOP-62 NSCLC = test system: HOP-62 NSCLC
M19-MEL melanoma = test system: M19-MEL melanoma
KM20L2 colon = test system: KM20L2 colon
A498 renal = test system: A498 renal
NCI-H460 lung = test system: NCI-H460 lung
U251 CNS = test system: U251 CNS
SR leukemia = test system: SR leukemia
OVCAR-8 ovarian = test system: OVCAR-8 ovarian
A549 NSCLC = test system: A549 NSCLC
HT29 colon = test system: HT29 colon
SK-MEL-5 melanoma = test system: SK-MEL-5 melanoma
SNB-19 CNS = test system: SNB-19 CNS
SK-MEL-28 melanoma = test system: SK-MEL-28 melanoma
RXF 393 renal = test system: RXF 393 renal
SN12C renal = test system: SN12C renal
SF-295 CNS = test system: SF-295 CNS
786-0 renal = test system: 786-0 renal
LOX IMVI melanoma = test system: LOX IMVI melanoma
MALME-3M melanoma = test system: MALME-3M melanoma
OVCAR-3 ovarian = test system: OVCAR-3 ovarian
NCI-H23 lung = test system: NCI-H23 lung
ACHN renal = test system: ACHN renal
HL-60(TB) leukemia = test system: HL-60(TB) leukemia
DLD-1 colon = test system: DLD-1 colon
K-562 leukemia = test system: K-562 leukemia
SF-539 CNS = test system: SF-539 CNS
UACC-257 melanoma = test system: UACC-257 melanoma
DMS 114 small cell lung = test system: DMS 114 small cell lung
SK-MEL-2 melanoma = test system: SK-MEL-2 melanoma
MOLT-4 leukemia = test system: MOLT-4 leukemia
SF-268 CNS = test system: SF-268 CNS
COLO 205 colon = test system: COLO 205 colon
UO-31 renal = test system: UO-31 renal
HCT-116 colon = test system: HCT-116 colon
NCI-H226 lung = test system: NCI-H226 lung
SNB-78 CNS = test system: SNB-78 CNS
SK-OV-3 ovarian = test system: SK-OV-3 ovarian
HOP-92 NSCLC = test system: HOP-92 NSCLC
HOP-18 NSCLC = test system: HOP-18 NSCLC
NCI-H522 lung = test system: NCI-H522 lung

Structure (SMILES): COC(=O)CC(C(C(C)=O)C(=O)OCc1ccccc1)N1C(=O)OCC1c1ccccc1 (configuration not stated)
- TGI (UACC-62 melanoma): > 100 µM
- TGI (LXFL 529 NSCLC): > 100 µM
- TGI (EKVX NSCLC): > 100 µM
- TGI (TK-10 renal): > 100 µM
- TGI (SNB-75 CNS): 71.9 µM
- TGI (HCT-15 colon): > 100 µM
- TGI (SW-620 colon): > 100 µM
- TGI (M14 melanoma): > 100 µM
- TGI (CCRF-CEM leukemia): > 100 µM
- TGI (DMS 273 small cell lung): > 100 µM
- TGI (OVCAR-4 ovarian): > 100 µM
- TGI (HCC-2998 colon): > 100 µM
- TGI (XF 498 CNS): > 100 µM
- TGI (RPMI-8226 leukemia): > 100 µM
- TGI (IGROV1 ovarian): > 100 µM
- TGI (RXF-631 renal): > 100 µM
- TGI (HOP-62 NSCLC): > 100 µM
- TGI (M19-MEL melanoma): > 100 µM
- TGI (KM20L2 colon): > 100 µM
- TGI (A498 renal): > 100 µM
- TGI (NCI-H460 lung): > 100 µM
- TGI (U251 CNS): > 100 µM
- TGI (SR leukemia): > 100 µM
- TGI (OVCAR-8 ovarian): > 100 µM
- TGI (A549 NSCLC): > 100 µM
- TGI (HT29 colon): > 100 µM
- TGI (SK-MEL-5 melanoma): > 100 µM
- TGI (SNB-19 CNS): > 100 µM
- TGI (SK-MEL-28 melanoma): > 100 µM
- TGI (RXF 393 renal): > 100 µM
- TGI (SN12C renal): > 100 µM
- TGI (SF-295 CNS): > 100 µM
- TGI (786-0 renal): > 100 µM
- TGI (LOX IMVI melanoma): > 100 µM
- TGI (MALME-3M melanoma): > 100 µM
- TGI (OVCAR-3 ovarian): > 100 µM
- TGI (NCI-H23 lung): > 100 µM
- TGI (ACHN renal): > 100 µM
- TGI (HL-60(TB) leukemia): > 100 µM
- TGI (DLD-1 colon): > 100 µM
- TGI (K-562 leukemia): > 100 µM
- TGI (SF-539 CNS): > 100 µM
- TGI (UACC-257 melanoma): > 100 µM
- TGI (DMS 114 small cell lung): > 100 µM
- TGI (SK-MEL-2 melanoma): > 100 µM
- TGI (MOLT-4 leukemia): > 100 µM
- TGI (SF-268 CNS): > 100 µM
- TGI (COLO 205 colon): > 100 µM
- TGI (UO-31 renal): > 100 µM
- TGI (HCT-116 colon): > 100 µM
- TGI (NCI-H226 lung): > 100 µM

Structure (SMILES): C/C(CC(=O)N(C(C)C)C(C)C)=N\NC(=O)c1ccncc1
- TGI (UACC-62 melanoma): > 100 µM
- TGI (LXFL 529 NSCLC): > 100 µM
- TGI (EKVX NSCLC): > 100 µM
- TGI (SNB-78 CNS): > 100 µM
- TGI (SNB-75 CNS): > 100 µM
- TGI (HCT-15 colon): > 100 µM
- TGI (SW-620 colon): > 100 µM
- TGI (M14 melanoma): > 100 µM
- TGI (CCRF-CEM leukemia): > 100 µM
- TGI (DMS 273 small cell lung): > 100 µM
- TGI (OVCAR-4 ovarian): > 100 µM
- TGI (HCC-2998 colon): > 100 µM
- TGI (XF 498 CNS): > 100 µM
- TGI (RPMI-8226 leukemia): > 100 µM
- TGI (IGROV1 ovarian): > 100 µM
- TGI (RXF-631 renal): > 100 µM
- TGI (M19-MEL melanoma): > 100 µM
- TGI (KM20L2 colon): > 100 µM
- TGI (A498 renal): > 100 µM
- TGI (U251 CNS): > 100 µM
- TGI (SR leukemia): > 100 µM
- TGI (OVCAR-8 ovarian): > 100 µM
- TGI (A549 NSCLC): > 100 µM
- TGI (HT29 colon): > 100 µM
- TGI (SK-OV-3 ovarian): > 100 µM
- TGI (SK-MEL-5 melanoma): > 100 µM
- TGI (SNB-19 CNS): > 100 µM
- TGI (SK-MEL-28 melanoma): > 100 µM
- TGI (RXF 393 renal): > 100 µM
- TGI (SN12C renal): > 100 µM
- TGI (SF-295 CNS): > 100 µM
- TGI (786-0 renal): > 100 µM
- TGI (LOX IMVI melanoma): > 100 µM
- TGI (MALME-3M melanoma): > 100 µM
- TGI (OVCAR-3 ovarian): > 100 µM
- TGI (NCI-H23 lung): > 100 µM
- TGI (HOP-92 NSCLC): > 100 µM
- TGI (ACHN renal): > 100 µM
- TGI (HL-60(TB) leukemia): > 100 µM
- TGI (DLD-1 colon): > 100 µM
- TGI (K-562 leukemia): > 100 µM
- TGI (HOP-18 NSCLC): > 100 µM
- TGI (SF-539 CNS): > 100 µM
- TGI (UACC-257 melanoma): > 100 µM
- TGI (MOLT-4 leukemia): > 100 µM
- TGI (SF-268 CNS): > 100 µM
- TGI (COLO 205 colon): > 100 µM
- TGI (NCI-H522 lung): > 100 µM
- TGI (UO-31 renal): > 100 µM
- TGI (HCT-116 colon): > 100 µM
- TGI (NCI-H226 lung): > 100 µM
